Measured values from patent US9837621B2, “Compound, light-emitting element, light-emitting device, electronic device, and lighting device” (Semiconductor Energy Laboratory Co., Ltd., priority 2014, dated 2017).

Key:
[1] = Thermogravimetry-differential thermal analysis (TG-DTA), 5% weight loss temperature; type: physicochemical; details: nitrogen stream 200 mL/min, normal pressure, temperature rising rate 10° C./min
Experimental: Thermogravimetry-differential thermal analysis (TG-DTA) was performed on 2mFDBtPDBq. The measurement was conducted by using a high vacuum differential type differential thermal balance (TG/DTA 2410SA, manufactured by Bruker AXS K.K.). The measurement was conducted under a nitrogen stream (flow rate: 200 mL/min) at normal pressure at a temperature rising rate of 10° C./min. It was found from the relationship between weight and temperature (thermogravimetry) that the 5% weight loss temperature of 2mFDBtPDBq was 495° C.
TG-DTA was performed on 2mDBtBPDBq-VIII. The conditions of the measurement were similar to those in Example 1. It was found from thermogravimetry that the 5% weight loss temperature of 2mDBtBPDBq-VIII was 500° C. or higher.

[2] = physchem; type: physicochemical; details: organic solvent or mixture, thermodynamic from solid
From the text: The compounds which are embodiments of the present invention and used in this example were 2mFDBtPDBq (sample 1) and 2mDBTBPDBq-VIII (sample 2). For the methods for synthesizing the compounds, Synthesis Examples 1 and 2 can be referred to. As comparative compounds, 2-[3′-(dibenzothiophen-4-yl)biphenyl-3-yl]dibenzo[f,h]quinoxaline (abbreviation: 2mDBTBPDBq-II) (comparative sample 3) and 2-[3-(dibenzothiophen-4-yl)phenyl]dibenzo[f,h]quinoxaline (abbreviation: 2mDBTPDBq-II) (comparative sample 4) were used in this example. The purity of each compound was 99.9%. The chemical formulae of the compounds are shown below.
The solvents used in this example were the four kinds of solvents: toluene, chloroform, ethyl acetate, and acetone.
A method for examining the solubility of the compound of each sample is described. First, 10 mg of the compound was put into a small bottle and to this was added 1 mL of a solvent. Then, whether the compound was dissolved at room temperature or not was checked. When the compound was not dissolved at room temperature, ultrasonic wave irradiation and then heating using a dryer were performed, so that whether the compound was dissolved or not was checked.
When the compound was not dissolved after heating, the volume of the solvent was increased to 10 mL, so that whether the compound was dissolved at room temperature or not was checked. […]

Structure (SMILES)	5% weight loss temperature [1] [°C]	solubility [2] [µg/mL]
CC1(C)c2ccccc2-c2ccc(-c3cccc4c3sc3c(-c5cccc(-c6cnc7c8ccccc8c8ccccc8c7n6)c5)cccc34)cc21 [2mFDBtPDBq, 2-{3-[6-(9,9-dimethylfluoren-2-yl)dibenzothiophen-4-yl]phenyl}dibenzo[f,h]quinoxaline]	495	> 10000
CC1(C)c2ccccc2-c2ccc(-c3cccc4c3sc3c(-c5cccc(-c6cccc(-c7cnc8c9ccccc9c9ccccc9c8n7)c6)c5)cccc34)cc21 [2mDBtBPDBq-VIII, 2-(3-{3-[6-(9,9-dimethylfluoren-2-yl)dibenzothiophen-4-yl]phenyl}phenyl)dibenzo[f,h]quinoxaline]	≥ 500	> 10000
